Target: T1, ADRB2 (Homo sapiens, UniProt P07550)
T1 construct: purchased Promega (in-house HiBiT-GPCR construct library, NanoBRET)
Experiment: NanoBRET screen HiBiT-ADRB2 in HEK293
Type: binding
Method: Each tracer candidate was screened across the entire library of HiBiT-GPCR constructs using NanoBRET as the detection modality. As depicted in Figure 4A, the specificity of interactions was evaluated through decrease in BRET due to competitive displacement of a bound tracer by excess parental compound. Each tracer was analyzed for binding to each HiBiT-GPCR fusion in the absence and in the presence of competing parental compound. Briefly, HEK293 cells were transfected with HiBiT-GPCR constructs diluted into promoterless DNA to reduce expression and maximize translocation to the cell surface. Each tracer candidate was then screened at concentrations of 1 μM and 0.1 μM across cells expressing these fusions. Cells were treated for 1.5 h with tracer either alone or in the presence of 20 μM competing parental compound (i.e., control). BRET was measured upon addition of purified LgBiT and subsequent complementation with HiBiT genetically fused to a GPCR. The specificity of interactions was assessed through a decrease in BRET signal due to competitive displacement of the bound tracer. To further gauge the robustness of these interactions, the fold response over the control (i.e., BRETtracer/BRETcontrol) was calculated. We chose a 1.5-fold response, which translates to ≥7-fold signal over noise as the minimal threshold required to score an interaction as positive.
HiBiT-GPCR DNA constructs were diluted in 10 mM Tris pH 8 to a final concentration of 0.01 μg/μL, arrayed in 96-well plates and stored at −20 °C. For transfection, HEK293 cells were suspended in Opti-MEM (without phenol red) supplemented with 2% fetal bovine serum (Seradigm) and 100 units/mL penicillin–streptomycin (Gibco) at a final concentration of 220,000 cells/mL and dispensed into white 96-well plates at 90 μL/well. Subsequent transfections and screens were carried using an Agilent Bravo Automated Liquid Handling Platform. First, the 96-well HiBiT DNA arrays were diluted 25-fold in Opti-MEM (without serum or phenol red) to a final concentration of 0.0004 μg/μL and 20 μL of the diluted DNAs were transferred into new 96-well plates. Next, promoterless carrier DNA (1 μg/μL) was diluted 25-fold (0.04 μg/μL) and then dispensed into the diluted arrays at 20 μL/well. Following brief mixing, Viafect transfection reagent (Promega) diluted 16-fold into Opti-MEM was dispensed into the plates at 40 μL/well. After mixing by pipetting, plates were incubated for 10 min on the pipetting station deck. The DNA-transfection reagent complexes were then added to plates containing cells. To facilitate the screen, 10 μL of DNA-transfection reagent complexes were added in duplicates to the top 4 and bottom 4 rows, resulting in two identical 48-well arrays per plate. Plates with transfected cells were incubated for 18–20 h at 37 °C/5% CO2. A screen of each tracer across the entire library using two different concentrations requires duplicate plates of transfected cells. Depending on the number of tracers being screened, transfections can be scaled up using the same ratios. The next day, for each tracer, four 20× screening solutions in tracer dilution buffer (Promega) were prepared: two duplicates at final concentration of 20 μM and two duplicates at a final concentration of 2 μM. […] The four resulting solutions were diluted 4-fold in Opti-MEM without serum or phenol red to generate 5× solutions (5 µM and 0.5 µM tracer +/− 100 μM competing compound). To screen the library, a BioTek MultiFlo FX liquid dispenser was used to dispense 22.5 µL of tracer solution to the top 4 rows and 22.5 µL tracer + competing compound solution to the 4 bottom rows. Plates were briefly mixed on an orbital shaker and incubated for 1.5 h at room temperature. […] Plates were briefly mixed on an orbital shaker and incubated for 15 min to allow complementation.

T1 sequence (P07550 whole entry): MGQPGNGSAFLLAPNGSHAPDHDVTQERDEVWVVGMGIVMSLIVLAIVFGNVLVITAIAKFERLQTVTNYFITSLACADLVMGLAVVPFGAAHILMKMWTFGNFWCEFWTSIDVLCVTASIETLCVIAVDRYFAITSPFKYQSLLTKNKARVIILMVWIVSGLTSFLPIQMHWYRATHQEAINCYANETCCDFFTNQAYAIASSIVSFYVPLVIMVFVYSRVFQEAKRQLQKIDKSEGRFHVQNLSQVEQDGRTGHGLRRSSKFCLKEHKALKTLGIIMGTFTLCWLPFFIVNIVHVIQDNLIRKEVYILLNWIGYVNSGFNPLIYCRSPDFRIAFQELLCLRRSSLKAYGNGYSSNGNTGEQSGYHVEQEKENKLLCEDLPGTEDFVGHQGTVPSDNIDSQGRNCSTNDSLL

Row | SMILES | NanoBRET Fold Response (ADRB2, tracer 0.1μM) | NanoBRET Fold Response (ADRB2, tracer 1μM) | other results
1 | O=C(CCc1ccc2n1[B-](F)(F)[N+]1=C(c3ccc[nH]3)C=CC1=C2)NCc1ccc(C(=O)NCCOCCC(=O)N[C@@H]2CC[C@@]3(O)[C@H]4Cc5ccc(O)c6c5[C@@]3(CCN4CC3CC3)[C@H]2O6)cc1 [Naltrexone-3-NB590] | 1.36 | 0.89 | –
2 | CCCn1c(=O)c2[nH]c(-c3ccc(OCC(=O)NCCNC(=O)CCOCCNC(=O)c4ccc(CNC(=O)CCc5ccc6n5[B-](F)(F)[N+]5=C(c7ccc[nH]7)C=CC5=C6)cc4)cc3)nc2n(CCC)c1=O [XAC-3-NB590] | 1.04 | 1.10 | –
3 | CC(C)N(CC[C@H](c1ccccc1)c1cc(CCNC(=O)c2ccc(CNC(=O)CCc3ccc4n3[B-](F)(F)[N+]3=C(c5ccc[nH]5)C=CC3=C4)cc2)ccc1O)C(C)C [Tolterodine-BZ-NB590] | 1.04 | 1.19 | –
4 | N#CN/C(=N\CCNC(=O)c1ccc(N)cc1)NCCCOc1cccc(CN2CCCCC2)c1 [Aminopotentidine (unmodified)] | – | – | NanoBRET Fold Response (ADRB2, other tracers/Aminopotentidine (unmodified), 0.1μM): 1.00; NanoBRET Fold Response (ADRB2, other tracers/Aminopotentidine (unmodified), 1μM): 1.04
5 | COc1ccc2[nH]c(-c3ccc(CNC(=O)CCOCCOCCOCCOCCNC(=O)CCc4ccc5n4[B-](F)(F)[N+]4=C(c6ccc[nH]6)C=CC4=C5)cc3)c(CCNC(C)=O)c2n1 [AzomelatoninICO9-2-NB590] | – | – | NanoBRET Fold Response (0.1μM tracer): 0.94; NanoBRET Fold Response (1μM tracer): 0.99
6 | CN1CCN(C2=Nc3cc(Cl)ccc3N(CC(=O)NCCOCCOCCOCCOCCNC(=O)CCc3ccc4n3[B-](F)(F)[N+]3=C(c5ccc[nH]5)C=CC3=C4)c3ccccc32)CC1 [Clozapine-c-2-NB590] | – | – | NanoBRET Fold Response (ADRB2, 0.1μM tracer): 0.99; NanoBRET Fold Response (ADRB2, 1μM tracer): 1.02
7 | COc1ccccc1N1CCN(CCCCN2C(=O)c3ccc(CNC(=O)CCOCCNC(=O)c4ccc(CNC(=O)CCc5ccc6n5[B-](F)(F)[N+]5=C(c7ccc[nH]7)C=CC5=C6)cc4)cc3C2=O)CC1 [NAN-190-3-NB590] | 1.00 | 1.45 | –
8 | Cc1nc2n(c(=O)c1CCN1CCC(c3noc4cc(F)ccc34)CC1)CCCC2OC(=O)NCCOCCOCCOCCOCCNC(=O)CCc1ccc2n1[B-](F)(F)[N+]1=C(c3ccc[nH]3)C=CC1=C2 (centres unmarked) [Risperidone-2-NB590] | 0.97 | 0.98 | –
9 | O=C(CCOCCOCCOCCOCCNC(=O)CCc1ccc2n1[B-](F)(F)[N+]1=C(c3ccc[nH]3)C=CC1=C2)NCCCN1CCN(C2=Nc3ccccc3Oc3ccc(Cl)cc32)CC1 [Loxapine-a-2-NB590] | 1.06 | 0.94 | –
10 | COc1ccccc1N1CCN(CCCCN2C(=O)c3ccc(CNC(=O)CCOCCOCCOCCOCCNC(=O)CCc4ccc5n4[B-](F)(F)[N+]4=C(c6ccc[nH]6)C=CC4=C5)cc3C2=O)CC1 [NAN-190-2-NB590] | 1.25 | 1.66 | –
11 | CC(C)N(CC[C@H](c1ccccc1)c1cc(CCNC(=O)CCOCCOCCOCCOCCNC(=O)CCc2ccc3n2[B-](F)(F)[N+]2=C(c4ccc[nH]4)C=CC2=C3)ccc1O)C(C)C [Tolterodine-2-NB590] | 0.93 | 1.03 | –
12 | N#CN=C(NCCCOc1cccc(CN2CCCCC2)c1)NCCNC(=O)CCOCCOCCOCCOCCNC(=O)CCc1ccc2n1[B-](F)(F)[N+]1=C(c3ccc[nH]3)C=CC1=C2 [Aminopotentidine-2-NB590] | 1.05 | 1.02 | –
13 | CCOC(=O)c1cc(C#N)c(N2CCC(C(=O)NS(=O)(=O)Cc3ccccc3/C=C/C(=O)NCCNC(=O)CCc3ccc4n3[B-](F)(F)[N+]3=C(c5ccc[nH]5)C=CC3=C4)CC2)nc1C [AZD1283-1-NB590] | – | – | NanoBRET Fold Response (ADRB2, 0.1μM): 1.01; NanoBRET Fold Response (ADRB2, 1μM): 1.06
14 | CN(C)CCC=C1c2ccccc2CCc2ccc(C(=O)NCCNC(=O)CCOCCOCCOCCOCCNC(=O)CCc3ccc4n3[B-](F)(F)[N+]3=C(c5ccc[nH]5)C=CC3=C4)cc21 [Amitriptyline-b-2-NB590] | – | – | NanoBRET Fold Response (tracer at 0.1μM, listed as amitriptyline-b-2-NB590): 1.08; NanoBRET Fold Response (tracer at 1μM, listed as amitriptyline-b-2-NB590): 0.96
15 | CN(C)CCC=C1c2ccccc2CCc2ccc(C(=O)NCCNC(=O)CCOCCOCCOCCOCCNC(=O)CCc3ccc4n3[B-](F)(F)[N+]3=C(c5ccc[nH]5)C=CC3=C4)cc21 [Amitriptyline-a-2-NB590] | – | – | NanoBRET Fold Response (tracer at 0.1μM): 1.04; NanoBRET Fold Response (tracer at 1μM): 1.03
16 | O=C(CCc1ccc2n1[B-](F)(F)[N+]1=C(c3ccc[nH]3)C=CC1=C2)NCCOCCOCCNC(=O)OCCOCCN1CCN(C2=Nc3ccccc3Sc3ccccc32)CC1 [Quetiapine-a-2-NB590] | 1.13 | 0.97 | –
17 | Cc1cc2c(s1)Nc1ccccc1N=C2N1CCN(CCCNC(=O)CCOCCOCCOCCOCCNC(=O)CCc2ccc3n2[B-](F)(F)[N+]2=C(c4ccc[nH]4)C=CC2=C3)CC1 [Olanzapine-a-2-NB590] | 1.01 | 1.15 | –
18 | CN1CCN(C2=Nc3cc(Cl)ccc3Nc3ccc(CNC(=O)CCOCCOCCOCCOCCNC(=O)CCc4ccc5n4[B-](F)(F)[N+]4=C(c6ccc[nH]6)C=CC4=C5)cc32)CC1 [Clozapine-b-2-NB590] | – | – | NanoBRET Fold Response (ADRB2, 0.1μM tracer): 1.01; NanoBRET Fold Response (ADRB2, 1μM tracer): 0.93
19 | COc1ccc2c(n1)c(CCNC(C)=O)cn2CCNC(=O)CCc1ccc2n1[B-](F)(F)[N+]1=C(c3ccc[nH]3)C=CC1=C2 [Azamelatonin-1-NB590] | – | – | NanoBRET Fold Response (0.1μM tracer): 0.97; NanoBRET Fold Response (1μM tracer): 0.90
20 | CN(CCC=C1c2ccccc2CCc2ccccc21)C(=O)CCOCCOCCOCCOCCNC(=O)CCc1ccc2n1[B-](F)(F)[N+]1=C(c3ccc[nH]3)C=CC1=C2 [Amitriptyline-e-2-NB590] | – | – | NanoBRET Fold Response (tracer at 1μM): 1.04
21 | O=C(CCOCCOCCOCCOCCNC(=O)CCc1ccc2n1[B-](F)(F)[N+]1=C(c3ccc[nH]3)C=CC1=C2)NCCCN1CCN(C2=Nc3cc(Cl)ccc3Nc3ccccc32)CC1 [Clozapine-a-2-NB590] | – | – | NanoBRET Fold Response (ADRB2, 0.1μM tracer): 1.09; NanoBRET Fold Response (ADRB2, 1μM tracer): 1.10

Source: PMC8151276, “An Integrated Approach toward NanoBRET Tracers for Analysis of GPCR Ligand Engagement” (Molecules, 2021)
